Target: High affinity nerve growth factor receptor (Homo sapiens, UniProt P04629)
Sequence (P04629 whole entry): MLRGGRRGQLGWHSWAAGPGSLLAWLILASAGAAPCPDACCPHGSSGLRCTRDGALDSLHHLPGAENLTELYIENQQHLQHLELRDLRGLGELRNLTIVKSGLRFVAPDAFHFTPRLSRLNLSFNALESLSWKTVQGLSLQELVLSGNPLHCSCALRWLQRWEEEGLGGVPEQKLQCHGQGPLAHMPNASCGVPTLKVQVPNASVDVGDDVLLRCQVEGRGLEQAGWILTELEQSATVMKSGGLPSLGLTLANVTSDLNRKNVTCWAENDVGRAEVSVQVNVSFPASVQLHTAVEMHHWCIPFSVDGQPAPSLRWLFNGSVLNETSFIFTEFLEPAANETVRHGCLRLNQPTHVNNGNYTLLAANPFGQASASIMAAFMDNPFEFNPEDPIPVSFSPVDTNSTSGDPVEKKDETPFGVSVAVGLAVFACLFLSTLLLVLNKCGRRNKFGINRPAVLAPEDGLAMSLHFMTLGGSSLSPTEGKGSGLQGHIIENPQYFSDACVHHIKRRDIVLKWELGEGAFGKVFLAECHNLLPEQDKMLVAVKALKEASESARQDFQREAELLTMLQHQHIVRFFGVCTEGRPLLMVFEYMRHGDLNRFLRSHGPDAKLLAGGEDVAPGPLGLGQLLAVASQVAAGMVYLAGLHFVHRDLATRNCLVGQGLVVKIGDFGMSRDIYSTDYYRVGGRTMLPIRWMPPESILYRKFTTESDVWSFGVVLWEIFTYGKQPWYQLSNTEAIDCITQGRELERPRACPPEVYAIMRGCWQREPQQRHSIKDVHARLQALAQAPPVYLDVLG

Row | Structure (SMILES) | IC50 [nM]
1 | Cc1nc2ccc(NC(=O)c3coc4c3C(=O)NCC4)cc2s1 [US9777020, Example 15] | 69.3
2 | CCOc1nc(N2CCOCC2)ccc1NC(=O)c1coc2c1C(=O)NCC2 [US9777020, Example 106] | 28.6

Source: BindingDB's records for patent US9777020 (AbbVie Inc, 2017)
